Consider 9 molecules from patent publication US10004701B2, “Methods and compositions for treating infection” (UNIVERSITY OF ROCHESTER, priority 2012, dated 2018).

Common to all, as to experiment: AK assay 384-well format, Prestwick library screening
Assay [1] has as its system S. aureus strain USA300-0114. The assay is classed as cell-based, Staphylococcus aureus. Particulars: Staphylococcus aureus, USA300, 3 h, 50 μM final drug concentration.
Assay [2] concerns P. aeruginosa. It counts as cell-based, Pseudomonas aeruginosa. To be noted: Pseudomonas aeruginosa, 3 h, 50 μM final drug concentration.
Assay [3] concerns A. baumannii strain 98-37-09. It counts as cell-based, Acinetobacter baumannii. To be noted: Acinetobacter baumannii, 983709, 3 h, 50 μM final drug concentration.
For assay [4], the system named is E. coli. The assay is classed as cell-based, Escherichia coli. To be noted: Escherichia coli, 3 h, 50 μM final drug concentration.
The test system of assay [5] is K. pneumoniae. It counts as cell-based, Klebsiella pneumoniae. Particulars: Klebsiella pneumoniae, 3 h, 50 μM final drug concentration.
For assay [6], the system named is E. faecium. The assay is classed as cell-based, Enterococcus faecium. Particulars: Enterococcus faecium, 3 h, 50 μM final drug concentration.
The subject of assay [7] is E. cloacae. It counts as cell-based, Enterobacter cloacae. Particulars: Enterobacter cloacae, 3 h, 50 μM final drug concentration.
The mark [8] stands for this setting: 384-well format, cutoff for positive-scoring molecules 3-fold increase, read-out: AK-based Prestwick Library Screening Results, S. aureus (increase in extracellular AK activity).
Setting [9] is: 384-well format, cutoff for positive-scoring molecules 3-fold increase, read-out: AK-based Prestwick Library Screening Results, P. aeruginosa (increase in extracellular AK activity).
Setting [10] is: 384-well format, cutoff for positive-scoring molecules 3-fold increase, read-out: AK-based Prestwick Library Screening Results, A. baumannii (increase in extracellular AK activity).
[11] abbreviates: 384-well format, cutoff for positive-scoring molecules 3-fold increase, read-out: AK-based Prestwick Library Screening Results, E. coli (increase in extracellular AK activity).
[12] abbreviates: 384-well format, cutoff for positive-scoring molecules 3-fold increase, read-out: AK-based Prestwick Library Screening Results, K. pneumoniae (increase in extracellular AK activity).
Where [13] appears, read: 384-well format, cutoff for positive-scoring molecules 3-fold increase, read-out: AK-based Prestwick Library Screening Results, E. faecium (increase in extracellular AK activity).
Where [14] appears, read: 384-well format, cutoff for positive-scoring molecules 3-fold increase, read-out: AK-based Prestwick Library Screening Results, E. cloacae (increase in extracellular AK activity).
[15] abbreviates: planktonic, cutoff for positive 3-fold increase, read-out: AK-based Prestwick Library Screening Results, S. aureus (fold increase in extracellular AK activity).
The mark [16] stands for this setting: planktonic, cutoff for positive 3-fold increase, read-out: AK-based Prestwick Library Screening Results, P. aeruginosa (fold increase in extracellular AK activity).
Where [17] appears, read: planktonic, cutoff for positive 3-fold increase, read-out: AK-based Prestwick Library Screening Results, A. baumannii (fold increase in extracellular AK activity).
Where [18] appears, read: planktonic, cutoff for positive 3-fold increase, read-out: AK-based Prestwick Library Screening Results, E. coli (fold increase in extracellular AK activity).
Where [19] appears, read: planktonic, cutoff for positive 3-fold increase, read-out: AK-based Prestwick Library Screening Results, K. pneumoniae (fold increase in extracellular AK activity).
The mark [20] stands for this setting: planktonic, cutoff for positive 3-fold increase, read-out: AK-based Prestwick Library Screening Results, E. faecium (fold increase in extracellular AK activity).
Setting [21] is: planktonic, cutoff for positive 3-fold increase, read-out: AK-based Prestwick Library Screening Results, E. cloacae (fold increase in extracellular AK activity).

Where a name gives a salt, the structure may show the parent alone. Read-outs that look alike come from different tables or passages of the source.

`CCCN1C[C@H](CSC)C[C@@H]2c3cccc4[nH]cc(c34)C[C@H]21` [Pergolide mesylate]: the fold induction at 50 µM in assay [1] (planktonic S. aureus, 384-well, cutoff for positive-scoring molecules 3-fold increase, read-out: AK-based Prestwick Library Screening Results: S. aureus (increase in extracellular AK activity)) is 1; in assay [2] (planktonic P. aeruginosa, 384-well, cutoff for positive-scoring molecules 3-fold increase, read-out: AK-based Prestwick Library Screening Results: P. aeruginosa (increase in extracellular AK activity)), 1; in assay [3] (planktonic A. baumannii, 384-well, cutoff for positive-scoring molecules 3-fold increase, read-out: AK-based Prestwick Library Screening Results: A. baumannii (increase in extracellular AK activity)) it was 1.3; in assay [4] (planktonic E. coli, 384-well, cutoff for positive-scoring molecules 3-fold increase, read-out: AK-based Prestwick Library Screening Results: E. coli (increase in extracellular AK activity)), 1.3; in assay [5] (planktonic K. pneumoniae, 384-well, cutoff for positive-scoring molecules 3-fold increase, read-out: AK-based Prestwick Library Screening Results: K. pneumoniae (increase in extracellular AK activity)) it was 0.8; in assay [6] (planktonic E. faecium, 384-well, cutoff for positive-scoring molecules 3-fold increase, read-out: AK-based Prestwick Library Screening Results: E. faecium (increase in extracellular AK activity)), 1. In assay [7] (planktonic E. cloacae, 384-well, cutoff for positive-scoring molecules 3-fold increase, read-out: AK-based Prestwick Library Screening Results: E. cloacae (increase in extracellular AK activity)), the fold induction at 50 µM was determined as 1.4.
`C1CCC(C(CC2CCCCN2)C2CCCCC2)CC1` (stereo not drawn) [Perhexiline maleate]: the fold induction at 50 µM in assay [1] (planktonic S. aureus, 384-well, […], read-out: AK-based Prestwick Library Screening Results: S. aureus (increase in extracellular AK activity)) came to 0.8; in assay [2] (planktonic P. aeruginosa, 384-well, […], read-out: AK-based Prestwick Library Screening Results: P. aeruginosa (increase in extracellular AK activity)), 1.4; in assay [3] (planktonic A. baumannii, 384-well, […], read-out: AK-based Prestwick Library Screening Results: A. baumannii (increase in extracellular AK activity)) it was 3.4; in assay [4] (planktonic E. coli, 384-well, […], read-out: AK-based Prestwick Library Screening Results: E. coli (increase in extracellular AK activity)) it was 1.8; in assay [5] (planktonic K. pneumoniae, 384-well, […], read-out: AK-based Prestwick Library Screening Results: K. pneumoniae (increase in extracellular AK activity)), 1.6; in assay [6] (planktonic E. faecium, 384-well, […], read-out: AK-based Prestwick Library Screening Results: E. faecium (increase in extracellular AK activity)), 1.2. The fold induction at 50 µM in assay [7] (planktonic E. cloacae, 384-well, […], read-out: AK-based Prestwick Library Screening Results: E. cloacae (increase in extracellular AK activity)) was 1.5.
Take `CCC[C@H](N[C@@H](C)C(=O)N1[C@H](C(=O)O)C[C@@H]2CCCC[C@@H]21)C(=O)OCC` [Perindopril]: the fold induction at 50 µM was 1.1 in assay [1] (planktonic S. aureus, positive cutoff 3-fold increase, read-out: AK-based Prestwick library screening result, S. aureus (fold increase in extracellular AK activity)); 1.2 in assay [2] (planktonic P. aeruginosa, positive cutoff 3-fold increase, read-out: AK-based Prestwick library screening result, P. aeruginosa (fold increase in extracellular AK activity)); 1.4 in assay [3] (planktonic A. baumannii, positive cutoff 3-fold increase, read-out: AK-based Prestwick library screening result, A. baumannii (fold increase in extracellular AK activity)); 1.2 in assay [4] (planktonic E. coli, positive cutoff 3-fold increase, read-out: AK-based Prestwick library screening result, E. coli (fold increase in extracellular AK activity)); 1.1 in assay [5] (planktonic K. pneumoniae, positive cutoff 3-fold increase, read-out: AK-based Prestwick library screening result, K. pneumoniae (fold increase in extracellular AK activity)); 1 in assay [6] (planktonic E. faecium, positive cutoff 3-fold increase, read-out: AK-based Prestwick library screening result, E. faecium (fold increase in extracellular AK activity)). Further, the fold induction at 50 µM in assay [7] (planktonic E. cloacae, positive cutoff 3-fold increase, read-out: AK-based Prestwick library screening result, E. cloacae (fold increase in extracellular AK activity)) turned out to be 1.3.
With `OCCN1CCN(CCCN2c3ccccc3Sc3ccc(Cl)cc32)CC1` [Perphenazine], the fold induction at 50 µM was found to be 0.9 in assay [1] (setting [8]); 1.1 in assay [2] (setting [9]); 1.6 in assay [3] (setting [10]); 1.5 in assay [4] (setting [11]); 1.3 in assay [5] (setting [12]); 1.2 in assay [6] (setting [13]). For the same molecule, the fold induction at 50 µM in assay [7] (setting [14]) is 1.4.
As for `CCOc1ccc(NC(C)=O)cc1` [Phenacetin], the fold induction at 50 µM in assay [1] (setting [15]) is 0.8; in assay [2] (setting [16]), 0.9; in assay [3] (setting [17]), 1.1; in assay [4] (setting [18]), 1.2; in assay [5] (setting [19]), 0.9; in assay [6] (setting [20]), 0.9. In assay [7] (setting [21]), the fold induction at 50 µM is 1.4.
`Nc1ccc(/N=N/c2ccccc2)c(N)n1` [Phenazopyridine hydrochloride]: the fold induction at 50 µM in assay [1] (planktonic, cutoff for positive-scoring molecules 3-fold increase, read-out: AK-based Prestwick Library Screening Results, S. aureus (fold increase in extracellular AK activity)) was found to be 0.3; in assay [2] (planktonic, cutoff for positive-scoring molecules 3-fold increase, read-out: AK-based Prestwick Library Screening Results, P. aeruginosa (fold increase in extracellular AK activity)), 0.1; in assay [3] (planktonic, cutoff for positive-scoring molecules 3-fold increase, read-out: AK-based Prestwick Library Screening Results, A. baumannii (fold increase in extracellular AK activity)), 0.1; in assay [4] (planktonic, cutoff for positive-scoring molecules 3-fold increase, read-out: AK-based Prestwick Library Screening Results, E. coli (fold increase in extracellular AK activity)), 0.1; in assay [5] (planktonic, cutoff for positive-scoring molecules 3-fold increase, read-out: AK-based Prestwick Library Screening Results, K. pneumoniae (fold increase in extracellular AK activity)) it was 0.1; in assay [6] (planktonic, cutoff for positive-scoring molecules 3-fold increase, read-out: AK-based Prestwick Library Screening Results, E. faecium (fold increase in extracellular AK activity)), 0.1. The fold induction at 50 µM in assay [7] (planktonic, cutoff for positive-scoring molecules 3-fold increase, read-out: AK-based Prestwick Library Screening Results, E. cloacae (fold increase in extracellular AK activity)) was 1.4.
Regarding `NNCCc1ccccc1` [Phenelzine sulfate], the fold induction at 50 µM in assay [1] (setting [8]) turned out to be 0.5; in assay [2] (setting [9]) it was 0.5; in assay [3] (setting [10]) it was 0.5; in assay [4] (setting [11]), 0.5; in assay [5] (setting [12]) it was 0.6; in assay [6] (setting [13]) it was 0.8. In addition, the fold induction at 50 µM in assay [7] (setting [14]) came to 0.5.
`CC(Oc1ccccc1)C(=O)N[C@@H]1C(=O)N2[C@@H]1SC(C)(C)[C@@H]2C(=O)O` (stereo partly drawn) [Phenethicillin potassium salt]: the fold induction at 50 µM was 0.6 in assay [1] (setting [15]); 0.4 in assay [2] (setting [16]); 0.8 in assay [3] (setting [17]); 0.5 in assay [4] (setting [18]); 0.5 in assay [5] (setting [19]); 1 in assay [6] (setting [20]). In assay [7] (setting [21]), the fold induction at 50 µM came out at 0.3.
With `[H]/N=C(/N)N/C(=N/[H])NCCc1ccccc1` [Phenformin hydrochloride], the fold induction at 50 µM was found to be 0.7 in assay [1] (setting [8]); 0.7 in assay [2] (setting [9]); 0.8 in assay [3] (setting [10]); 0.8 in assay [4] (setting [11]); 0.6 in assay [5] (setting [12]); 1 in assay [6] (setting [13]). Also, the fold induction at 50 µM in assay [7] (setting [14]) came out at 0.8.
